The test system of test [1] is Poly(I:C) HMW fluorescein (RNA, polymer, hypoxanthine (inosine) in place of every G of strand 1 (polyinosinic acid)) G/C. Nature of the test: microscale thermophoresis. The conditions noted are these: PBS-T, PBS-T pH 7.4, 200 nM labelled Poly(I:C).
The test system of test [2] is Poly(I:C) HMW (RNA, polymer, hypoxanthine (inosine) in place of every G of strand 1 (polyinosinic acid)) G/C. Nature of the test: fluorescence titration of compound emission. The conditions noted are these: PBS, 0 mM Mg2+, <1% DMSO, 5 µM compound, per base pair.
Test [3] shares this test system. Kind of test: UV melting. The conditions noted are these: PBS, 0 mM Mg2+, compound concentration not in material, per base.
Test [4] deals with Poly(I:C) Na^+ (RNA, polymer, hypoxanthine (inosine) in place of every G of strand 1 (polyinosinic acid)) G/C. Kind of test: fluorescence titration of compound emission. The conditions noted are these: PBS, <1% DMSO, 5 µM compound, per base pair.
The test system is the same in test [5]. Nature of the test: UV melting. The conditions noted are these: PBS, 0 mM Mg2+, compound concentration not in material, per base.
Test [6] deals with Poly(I:C) Na^+ γ (RNA, polymer, hypoxanthine (inosine) in place of every G of strand 1 (polyinosinic acid); gamma-irradiated, possible strand breaks) G/C. Kind of test: fluorescence titration of compound emission. The conditions noted are these: PBS, 0 mM Mg2+, <1% DMSO, 5 µM compound, per base pair.
In test [7] the target is T1, human RNase.
T1 construct: his-tag-labeled human RNase
Kind of test: microscale thermophoresis (MST). In kind it is binding. (Microscale thermophoresis detects binding through changes in fluorescence in a small temperature gradient.)

The target in test [8] is T1, human RNase. Kind of test: microscale thermophoresis (MST), two-site fit; Kd2 =[…]. Type of test: binding.
Test [9] concerns the target T1, human RNase. The description is as above. In kind it is binding. This is another data set of the same source.
Test [10] has as its system Poly(I:C) HMW (RNA, polymer, hypoxanthine (inosine) in place of every G of strand 1 (polyinosinic acid)) G/C. Kind of test: circular dichroism. The conditions noted are these: PBS, 0 mM Mg2+, 100 µM compound and 100 µM Poly(I:C). On the technique in general: Circular dichroism is widely used to follow secondary structure.
[11] abbreviates: 540 nm, 1:1 model, conditional constant, per base.
[12] abbreviates: 540 nm, 1:2 model, not a 1:1 Ka.
Setting [13] is: 595 nm, 1:1 model, conditional constant, per base.
Where [14] appears, read: 595 nm, 1:2 model, not a 1:1 Ka.
Where [15] appears, read: derived from two Tm (66 and 67).
Where [16] appears, read: derived from two Tm (65 and 65).

Each structure is given as a SMILES string.

In the case of `C[C@H]1c2cccc(O)c2C(O)=C2C(=O)[C@]3(O)C(O)=C(C(N)=O)C(=O)[C@@H](N(C)C)[C@@H]3[C@@H](O)[C@@H]21`, the Kd in test [1] (ligand stock 1 mM) was 366.2 ± 74.9 µM. The “Log(K)” value in [2] (setting [11]) is on record as 4.62 ± 0.3; in [2] (setting [12]), 11.34 ± 1.81; in test [4] (0 mM Mg2+, 540 nm, 1:2 model, not a 1:1 Ka) it was 9.85 ± 0.99; in test [4] (10 mM Mg2+ (MgSO4), 537 nm, 1:1 model, conditional constant, per base) it was 5.39 ± 0.96; in test [6] (setting [11]), 4.14 ± 0.57; in [6] (setting [12]) it was 10.39 ± 1.8. The “melting temperature shift (ΔTm)” value in test [3] (derived from two Tm (67 and 67)) was 0 °C; in [5] (derived from two Tm (64 and 65)), -1 °C.
Compound `CN(C)[C@@H]1C(O)=C(C(N)=O)C(=O)[C@@]2(O)C(O)=C3C(=O)c4c(O)cccc4[C@@](C)(O)[C@H]3C[C@@H]12` [tetracycline] gave an equilibrium dissociation constant (Kd) in test [7] of 24.5 µM. In other words, the double-digit micromolar range.
In turn, `C[C@H]1c2cccc(O)c2C(=O)C2=C(O)[C@]3(O)C(=O)C(C(N)=O)=C(O)[C@@H](N(C)C)[C@@H]3[C@@H](O)[C@@H]21` [doxycycline] yielded a Kd in test [8] of 0.149 ± 0.052 µM.
`COc1cccc2c1C(=O)c1c(O)c3c(c(O)c1C2=O)C[C@@](O)(C(=O)CO)C[C@@H]3O[C@H]1C[C@H](N)[C@H](O)[C@H](C)O1` [doxorubicin]: the equilibrium dissociation constant (Kd) was found to be 251 ± 22 µM in [1] (ligand stock 0.25 mM, Kd above tested range) and 4.8 ± 2 µM in test [7]. Besides, the “Log(K)” value was 5.21 ± 0.75 in test [2] (setting [13]); 11.23 ± 1.10 in test [2] (setting [14]); 5.03 ± 0.75 in [4] (0 mM Mg2+, 595 nm, 1:1 model, conditional constant, per base); 10.69 ± 1.14 in test [4] (0 mM Mg2+, 595 nm, 1:2 model, not a 1:1 Ka); 4.50 ± 0.72 in test [6] (setting [13]); 10.13 ± 1.23 in test [6] (setting [14]). In addition, the “melting temperature shift (ΔTm)” value is -1 °C in [3] (setting [15]) and 0 °C in [5] (setting [16]).
In test [9], `CN(C)c1ccc(O)c2c1C[C@H]1C[C@H]3[C@H](N(C)C)C(O)=C(C(N)=O)C(=O)[C@@]3(O)C(O)=C1C2=O` [minocycline] showed a Kd of 0.509 ± 0.118 µM. The entries for the “melting temperature shift (ΔTm)” value in test [3] (setting [15]) and in [5] (setting [16]) were -1 °C and 0 °C, respectively. For the same compound, the binding result in test [10] is “yes”.
Compound `CN(C)[C@@H]1C(=O)C(C(N)=O)=C(O)[C@@]2(O)C(=O)C3=C(O)c4c(O)cccc4[C@@](C)(O)[C@H]3C[C@@H]12` displayed a Kd in [1] (ligand stock 1 mM) of 448.1 ± 86.4 µM. The “Log(K)” value was 5.02 ± 1.05 in test [2] (549 nm, 1:1 model, conditional constant, per base); 11.70 ± 1.37 in [2] (549 nm, 1:2 model, not a 1:1 Ka); 4.64 ± 0.96 in test [4] (0 mM Mg2+, 549 nm, 1:1 model, conditional constant, per base); 11.18 ± 0.99 in test [4] (0 mM Mg2+, 549 nm, 1:2 model, not a 1:1 Ka); 4.37 ± 0.56 in [6] (505 nm, 1:1 model, conditional constant, per base); 9.57 ± 0.71 in test [6] (505 nm, 1:2 model, not a 1:1 Ka).

A word on the Kd: it is a measure of binding affinity in units of concentration.

Values taken from paper PMC12044458 (ACS Omega, 2025).
